Measurements published in patent publication US20260317356A1, “SMALL MOLECULE MODULATORS OF OGG1” (AZKARRA THERAPEUTICS, INC., priority 2023, published 2026).

biological target: hOGG1 (Homo sapiens, UniProt O15527); experiment: Biochemical fluorescence assay to measure enzymatic activity of hOGG1 (OGG1/APEX IC50); design: Protein His-hOGG1 (12-323) was prepared; His (N); host or cells: E. coli; conditions: 1 nM OGG1+2 nM APEX+6 nM dsDNA (8-oxo-dG substrate); pH 7.5; RT 40 min; read-out: OGG1/APEX IC50
Sequence (O15527 12-323): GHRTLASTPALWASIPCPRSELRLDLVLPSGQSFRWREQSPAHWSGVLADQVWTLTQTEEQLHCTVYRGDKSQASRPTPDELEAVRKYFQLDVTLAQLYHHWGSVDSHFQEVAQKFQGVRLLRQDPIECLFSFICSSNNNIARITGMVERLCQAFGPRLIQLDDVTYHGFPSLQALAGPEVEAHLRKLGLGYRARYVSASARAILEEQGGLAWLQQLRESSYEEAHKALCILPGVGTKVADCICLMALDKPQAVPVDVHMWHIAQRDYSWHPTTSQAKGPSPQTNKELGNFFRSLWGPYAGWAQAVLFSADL
How it was run: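 His-hOGG1 (12-323, E. coli) at 1 nM with 2 nM hAPE1/APEX1, preincubated 20 min RT with compound. Then 6 nM 8-oxo-dG dsDNA substrate added, 40 min at RT in Tris pH 7.5, 100 mM KCl. TAMRA fluorescence (Ex520/Em600) converted to % inhibition vs controls; IC50 from 3-parameter fit of 10-point curve.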

| IC50 | Structure (SMILES) |
| --- | --- |
| 100 to 1000 nM | COc1cc(NC(=O)[C@H]2CC[C@@H](N3Cc4c(C)cc(OCCN(C)C)cc4OC3=O)CC2)ccc1C [Example 117, (1s,4s)-4-(7-(2-(dimethylamino)ethoxy)-5-methyl-2-oxo-2H-benzo[e][1,3]oxazin-3(4H)-yl)-N-(3-methoxy-4-methylphenyl)cyclohexane-1-carboxamide] |
| 100 to 1000 nM | COc1cc(NC(=O)[C@H]2CC[C@@H](N3Cc4c(Br)cc([N+](=O)[O-])cc4C3=O)CC2)ccc1C [Example 163, (1s,4s)-4-(4-Bromo-6-nitro-1-oxoisoindolin-2-yl)-N-(3-methoxy-4-methylphenyl)cyclohexanecarboxamide] |
| 1000 to 10000 nM | COc1cccc(NC(=O)[C@H]2CC[C@@H](N3Cc4c(C)cccc4C3=O)CC2)c1 [Example 245, (1s,4s)-N-(3-Methoxyphenyl)-4-(4-methyl-1-oxoisoindolin-2-yl)cyclohexanecarboxamide] |
| 100 to 1000 nM | CNC(=O)c1cc(C)c2c(c1)C(=O)N([C@H]1CC[C@@H](C(=O)Nc3ccc(C)c(OC)c3)CC1)C2 [Example 212, 2-((1s,4s)-4-(3-Methoxy-4-methylphenylcarbamoyl)cyclohexyl)-N,7-dimethyl-3-oxoisoindoline-5-carboxamide] |
| 100 to 1000 nM | Cc1cccc2c1CN([C@H]1CC[C@@H](C(=O)Nc3ccc(Cl)c(F)c3)CC1)C(=O)N2 [Example 90, (1s,4s)-N-(4-chloro-3-fluorophenyl)-4-(5-methyl-2-oxo-1,2-dihydroquinazolin-3(4H)-yl)cyclohexanecarboxamide] |
| 100 to 1000 nM | COc1cc(NC(=O)[C@H]2CC[C@@H](N3Cc4c(Br)cc(NC(=O)CN5CCC5)cc4C3=O)CC2)ccc1C [Example 200, (1s,4s)-4-(6-(2-(Azetidin-1-yl)acetamido)-4-bromo-1-oxoisoindolin-2-yl)-N-(3-methoxy-4-methylphenyl)cyclohexanecarboxamide] |
| 100 to 1000 nM | Cc1cccc2c1CN([C@H]1CC[C@@H](C(=O)Nc3ccc(Cl)c(C#N)c3)CC1)C2=O [Example 263, (1s,4s)-N-(4-Chloro-3-cyanophenyl)-4-(4-methyl-1-oxoisoindolin-2-yl)cyclohexanecarboxamide] |
| 100 to 1000 nM | COc1cc(NC(=O)[C@H]2CC[C@@H](N3Cc4c(Cl)cccc4NC3=O)CC2)ccc1C [Example 68, (1s,4s)-4-(5-chloro-2-oxo-1,2-dihydroquinazolin-3(4H)-yl)-N-(3-methoxy-4-methylphenyl)cyclohexanecarboxamide] |
| < 100 nM | COc1cc(NC(=O)[C@H]2CC[C@@H](N3Cc4c(Br)cncc4NC3=O)CC2)ccc1C [Example 91, (1s,4s)-4-(5-bromo-2-oxo-1,2-dihydropyrido[3,4-d]pyrimidin-3(4H)-yl)-N-(3-methoxy-4-methylphenyl)cyclohexanecarboxamide] |
| 1000 to 10000 nM | COc1cc(NC(=O)[C@H]2CC[C@@H](N3Cc4c(C)cccc4C3=O)CC2)ccc1C1CC1 [Example 121, (1s,4s)-N-(4-Cyclopropyl-3-methoxyphenyl)-4-(4-methyl-1-oxoisoindolin-2-yl)cyclohexane-1-carboxamide] |
| < 100 nM | COc1cc(NC(=O)[C@H]2CC[C@@H](N3Cc4c(Br)cc(NCCN(C)C)cc4C3=O)CC2)ccc1C [Example 198, (1s,4s)-4-(4-Bromo-6-(2-(dimethylamino)ethylamino)-1-oxoisoindolin-2-yl)-N-(3-methoxy-4-methylphenyl)cyclohexanecarboxamide] |
| 1000 to 10000 nM | COc1cc(NC(=O)[C@H]2CC[C@@H](N3Cc4c(cccc4OC)NC3=O)CC2)ccc1C [Example 71, (1s,4s)-4-(5-methoxy-2-oxo-1,2-dihydroquinazolin-3(4H)-yl)-N-(3-methoxy-4-methylphenyl)cyclohexanecarboxamide] |
| < 100 nM | COc1cc(NC(=O)[C@H]2CC[C@@H](N3Cc4c(C)ccc(CO)c4NC3=O)CC2)ccc1C [Example 54, (1s,4s)-4-(8-(Hydroxymethyl)-5-methyl-2-oxo-1,2-dihydroquinazolin-3(4H)-yl)-N-(3-methoxy-4-methylphenyl)cyclohexanecarboxamide] |
| < 100 nM | COc1cc(NC(=O)[C@H]2CC[C@@H](N3Cc4c(C)cc(N5CC(OC)C5)cc4NC3=O)CC2)ccc1C [Example 29, (1s,4s)-N-(3-Methoxy-4-methylphenyl)-4-(7-(3-methoxyazetidin-1-yl)-5-methyl-2-oxo-1,2-dihydroquinazolin-3(4H)-yl)cyclohexanecarboxamide] |
| 100 to 1000 nM | Cc1cccc2c1CN([C@H]1CC[C@@H](C(=O)Nc3cc4ccccc4[nH]3)CC1)C2=O [Example 273, (1s,4s)-N-(1H-indol-2-yl)-4-(4-methyl-1-oxoisoindolin-2-yl)cyclohexanecarboxamide] |
| 100 to 1000 nM | Cc1cccc2c1CN([C@H]1CC[C@@H](C(=O)Nc3ccc4oncc4c3)CC1)C2=O [Example 275, (1s,4s)-N-(benzo[d]isoxazol-5-yl)-4-(4-methyl-1-oxoisoindolin-2-yl)cyclohexanecarboxamide] |

| IC50 | Structure (SMILES) |
| --- | --- |
| < 100 nM | COc1cc(NC(=O)[C@H]2CC[C@@H](N3Cc4c(C)cnc(Cl)c4NC3=O)CC2)ccc1C [Example 32, (1s,4s)-4-(8-Chloro-5-methyl-2-oxo-1,2-dihydropyrido[3,4-d]pyrimidin-3(4H)-yl)-N-(3-methoxy-4-methylphenyl)cyclohexanecarboxamide] |
| 100 to 1000 nM | CCc1ccc(NC(=O)[C@H]2CC[C@@H](N3Cc4c(C)cccc4C3=O)CC2)cc1C#N [Example 128, (1s,4s)-N-(3-Cyano-4-ethylphenyl)-4-(4-methyl-1-oxoisoindolin-2-yl)cyclohexane-1-carboxamide] |
| 100 to 1000 nM | COc1ccc(NC(=O)[C@H]2CC[C@@H](N3Cc4c(C)cccc4C3=O)CC2)cc1C(F)(F)F [Example 231, (1s,4s)-N-(4-Methoxy-3-(trifluoromethyl)phenyl)-4-(4-methyl-1-oxoisoindolin-2-yl)cyclohexanecarboxamide] |
| 100 to 1000 nM | COc1cc(NC(=O)[C@H]2CC[C@@H](N3Cc4c(Br)cc(N)cc4C3=O)CC2)ccc1C [Example 165, (1s,4s)-4-(6-Amino-4-bromo-1-oxoisoindolin-2-yl)-N-(3-methoxy-4-methylphenyl)cyclohexanecarboxamide] |
| < 100 nM | COc1ccc(NC(=O)[C@]2(C)CC[C@H](N3Cc4c(C)cccc4NC3=O)CC2)cc1C#N (single isomer, unassigned) [Example 107, (1s,4s)-N-(3-cyano-4-methoxyphenyl)-1-methyl-4-(5-methyl-2-oxo-1,2-dihydroquinazolin-3(4H)-yl)cyclohexanecarboxamide] |
| < 100 nM | COc1cc(NC(=O)[C@H]2CC[C@@H](N3Cc4c(C)cc(NCC5CNC5)cc4C3=O)CC2)ccc1C [Example 195, (1s,4s)-4-(6-(Azetidin-3-ylmethylamino)-4-methyl-1-oxoisoindolin-2-yl)-N-(3-methoxy-4-methylphenyl)cyclohexanecarboxamide] |
| 1000 to 10000 nM | Cc1cccc2c1CN([C@H]1CC[C@@H](C(=O)Nc3ccc4nc[nH]c4c3)CC1)C(=O)N2 [Example 109, (1s,4s)-N-(1H-benzo[d]imidazol-6-yl)-4-(5-methyl-2-oxo-1,2-dihydroquinazolin-3(4H)-yl)cyclohexanecarboxamide] |
| 100 to 1000 nM | COc1cc(NC(=O)[C@H]2CC[C@@H](N3Cc4c(Br)ccnc4C3=O)CC2)ccc1C [Example 168, (1s,4s)-4-(4-Bromo-7-oxo-5H-pyrrolo[3,4-b]pyridin-6 (7H)-yl)-N-(3-methoxy-4-methylphenyl)cyclohexanecarboxamide] |
| 1000 to 10000 nM | COc1cc(NC(=O)[C@H]2CC[C@@H](N3Cc4c(ccc(CN)c4C)NC3=O)CC2)ccc1C [Example 57, (1s,4s)-4-(6-(Aminomethyl)-5-methyl-2-oxo-1,2-dihydroquinazolin-3(4H)-yl)-N-(3-methoxy-4-methylphenyl)cyclohexanecarboxamide] |
| 1000 to 10000 nM | COc1cc(NC(=O)[C@@H]2[C@@H]3C[C@@H](N4Cc5c(Br)cccc5C4=O)C[C@@H]32)ccc1C [Example 213, (1R,5S,6s)-3-(4-Bromo-1-oxoisoindolin-2-yl)-N-(3-methoxy-4-methylphenyl)bicyclo[3.1.0]hexane-6-carboxamide] |
| 1000 to 10000 nM | COc1ccc(NC(=O)[C@]2(C)CC[C@@H](N3Cc4c(C)cccc4NC3=O)CC2)cc1Cl (single isomer, unassigned) [Example 104, (1r,4r)-N-(3-chloro-4-methoxyphenyl)-1-methyl-4-(5-methyl-2-oxo-1,2-dihydroquinazolin-3(4H)-yl)cyclohexanecarboxamide] |
| 1000 to 10000 nM | O=C1c2cccc(Br)c2CN1[C@H]1CC[C@@H](C(=O)Nc2ccc3c(c2)OCCO3)CC1 [Example 191, (1s,4s)-4-(4-Bromo-1-oxoisoindolin-2-yl)-N-(2,3-dihydrobenzo[b][1,4]dioxin-6-yl)cyclohexanecarboxamide] |
| 1000 to 10000 nM | Cc1ccc(NC(=O)[C@H]2CC[C@@H](N3Cc4c(C)cccc4C3=O)CC2)cc1C#N [Example 218, (1s,4s)-N-(3-Cyano-4-methylphenyl)-4-(4-methyl-1-oxoisoindolin-2-yl)cyclohexanecarboxamide] |
| > 10000 nM | COc1cc(NC(=O)[C@H]2CC[C@@H](N3Cc4c(C)cccc4C3=O)CC2)ccn1 [Example 234, (1s,4s)-N-(2-Methoxypyridin-4-yl)-4-(4-methyl-1-oxoisoindolin-2-yl)cyclohexanecarboxamide] |
| 1000 to 10000 nM | COc1cc(NC(=O)[C@H]2CC[C@@H](N3Cc4c(cccc4C(F)F)C3=O)CC2)ccc1C [Example 172, (1s,4s)-4-(4-(Difluoromethyl)-1-oxoisoindolin-2-yl)-N-(3-methoxy-4-methylphenyl)cyclohexanecarboxamide] |
